The test system of one data set is H1703 tumor cell line. Nature of the data set: ATP release from squamous NSCLC H1703 tumor cells after chemotherapy (CellTiter-Glo). The format is cell-based. Conditions: culture supernatant, FIG. 2. Here is the method: This experiment aimed as studying ATP release from squamous NSCLC tumor cells following chemotherapy treatment. The squamous NSCLC H1703 tumor cell line was incubated separately with different chemotherapies. The measurement of ATP release was performed 24 h after Cisplatin treatment, 72 h after Carboplatin, 60 h after Oxaliplatin, 48 h after Pemetrexed, 48 h after Gemcitabine, 72 h after 5-FU, 24 h after Paclitaxel and 40 h after Docetaxel. Extracellular ATP release in the culture supernatant was measured with a luminescent-based assay (CellTiter-Glo®) and expressed in Luminescence Arbitrary Unit (AU). Means+/−SD.
Result are shown in FIG. 2, showing ATP release from H1703 tumor cell line (sqNSCLC) following the treatment with different chemotherapies, cisplatin, carboplatin, oxaliplatin, pemetrexed, gemcitabine, 5-Fu, paclitaxel and docetaxel.
On the technique in general: ATP-based viability assays read luminescence as a measure of living cells.

A further data set concerns OAW42 (CD39+) cells. Nature of the data set: eATP release in OAW42 (CD39+) cells with IPH5201 and docetaxel. Conditions: docetaxel dose range, 30 h, FIG. 3B. The format is cell-based. Here is the method:
(§1) OAW42 (CD39+) cells were incubated with 10 or 50 μg/mL of IPH5201 and treated with a dose range of docetaxel. The measure of eATP release was performed 30 h after docetaxel treatment. eATP was measured in the cell culture supernatant with a luminescent-based assay (CellTiter-Glo®) and expressed in Luminescence Arbitrary Unit (AU). Means+/−SD.

Data set [1] concerns the target T1, recombinant human CD39 protein (huCD39) (Homo sapiens, UniProt P49961).
T1 sequence (P49961 38-478 limits assumed): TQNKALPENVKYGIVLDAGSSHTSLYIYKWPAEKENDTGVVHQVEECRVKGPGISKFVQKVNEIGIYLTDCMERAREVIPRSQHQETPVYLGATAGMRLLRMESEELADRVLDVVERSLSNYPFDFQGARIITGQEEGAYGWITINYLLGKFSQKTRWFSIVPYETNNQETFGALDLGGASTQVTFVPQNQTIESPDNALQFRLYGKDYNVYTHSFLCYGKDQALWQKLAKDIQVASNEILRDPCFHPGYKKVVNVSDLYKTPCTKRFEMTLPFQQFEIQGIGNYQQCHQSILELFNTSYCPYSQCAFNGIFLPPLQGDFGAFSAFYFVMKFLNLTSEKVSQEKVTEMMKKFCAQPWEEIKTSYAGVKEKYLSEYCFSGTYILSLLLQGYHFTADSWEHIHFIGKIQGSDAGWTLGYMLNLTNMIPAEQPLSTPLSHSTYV
Nature of the data set: eATP release by H1703 (CD39-) cells incubated with recombinant huCD39, with or without IPH5201, then docetaxel. Conditions: H1703 (CD39-) cells; docetaxel 0.1 μM; 40 h; FIG. 3A. In kind it is cell-based. Here is the method: H1703 (CD39−) cells were incubated with recombinant human CD39 protein (huCD39) (400 ng/ml) to mimic soluble CD39 in tumor microenvironment with or without IPH5201 (humanized anti-CD39 antibody having the respective heavy and light chain amino acid sequences of SEQ ID NOS: 10 and 11) at 10 μg/mL and then treated with docetaxel (0.1 μM). The measure of extracellular ATP (eATP) release was performed 40 h after docetaxel treatment.
as §1

The subject of a further data set is MC38 cancer cell line. Briefly: MC38 tumor growth in huCD39KI mice (gemcitabine +/- anti-PD-L1 +/- molPH5201). The format is in vivo, human CD39 knock-in (huCD39KI) mice. Conditions: for tumor growth compared to the control: p<0.001. Here is the method: In vivo experiments were performed in human CD39 knock-in (huCD39KI) mice, genetically modified to express human CD39 in place of its murine counterpart mouse CD39. These mice were sub-cutaneously (s.c.) engrafted with the MC38 cancer cell line. Mice bearing established tumors were dosed with isotype control (IC) antibodies, anti-human CD39 antibody (molPH5201, described above), gemcitabine chemotherapy and anti-mouse PD-L1 antibody (an antibody that binds murine PD-L1 having an Fc domain with amino acid substitutions to eliminate binding to mouse Fcγ receptors.
Male and female huCD39KI mice were engrafted subcutaneously (s.c.) with 1×10^6 MC38 cancer cells. Treatments were initiated after mouse randomization. Mice were treated twice a week for two weeks with gemcitabine (25 mg/kg) or PBS (at day 8, 11, 15 and 18 after cell engraftment) and once a week for four weeks with either anti-human CD39 antibody (molPH5201) or the corresponding isotype control (IC) antibody (400 μg/mouse).
Randomization of mice into four groups was performed on day 7 post tumor cell engraftment, at a mean tumor volume of 72 mm^3±27 mm^3 with individual tumor volumes comprised between 37 and 130 mm^3.
(§2) Male and female huCD39KI mice were engrafted s.c. with 1×10^6 MC38. Treatments were initiated after mouse randomization. Mice were treated twice a week for two weeks with gemcitabine (25 mg/kg) or PBS, twice a week for three weeks with either anti-mouse PD-L1 antibody or the corresponding IC antibody (200 μg/mouse) and once a week for four or five weeks depending on the experiment with either anti-human CD39 antibody (molPH5201) or the corresponding IC antibody (400 μg/mouse). Mouse randomization into five groups was performed on day 7 post tumor cell engraftment at a mean tumor volume of 62 mm^3±23 mm^3 with individual tumor volumes comprised between 31 and 117 mm^3.
as §2, with “As in Experiment 1, male” for “Male”, “64” for “62”, “115” for “117”
as §2, with “As in Experiments 1 and 2, male” for “Male”, “engraftment,” for “engraftment”, “74 mm^3±21” for “62 mm^3±23”, “40” for “31”, “121” for “117”
The three experiments were pooled and results are shown in FIG. 9, showing Tumor growth of MC38 tumor in huCD39KI mice post treatment with gemcitabine+/−anti-PD-L1+/−molPH5201. MC38 tumor-bearing huCD39KI mice were randomized on day 7 and then treated as indicated with 25 mg/kg ip of gemcitabine or PBS, 200 μg ip of anti-mouse PD-L1 antibody or corresponding isotype control antibody and with 400 μg iv of molPH5201 or corresponding IC antibody. Graphs show tumor growth in each individual (n=31/group). CR: Complete Response.

Data set [2] can be described thus: Phase 1 study of IPH5201 +/- durvalumab in advanced solid tumours: safety. In kind it is in vivo. Conditions: of 19 patients given IPH5201+durvalumab (1500 mg Q3W). Here is the method: A first-in-human, multicentre, non-randomised, open-label, phase 1 study was conducted in order to assess the safety, efficacy, pharmacokinetics (PK) and pharmacodynamics (PD) of IPH5201±durvalumab (Imfinzi™) in patients with advanced solid tumours. The study consisted of two consecutive dose-escalation parts: • Part 1: Ascending doses of IPH5201 (100, 300, 1000 and 3000 mg) every 3 weeks (Q3W). • Part 2: Ascending doses of IPH5201 (300, 1000 and 3000 mg) and 1500 mg durvalumab Q3W.
PD cohorts enrolled patients with advanced squamous cell lung carcinoma or advanced pancreatic ductal adenocarcinoma in the top two dose levels of Parts 1 and 2. Primary endpoints were safety and tolerability. Key secondary endpoints included preliminary antitumour activity measured by objective response and disease control per RECIST v1.1, PK and immunogenicity. Exploratory endpoints included efficacy measured by duration of response and progression-free survival (PFS) per RECIST v1.1, overall survival and assessment of biomarkers.
Key inclusion criteria were: • Adults aged ≥18 years. • Histologically or cytologically confirmed advanced solid tumours. • At least one measurable lesion per RECIST v1.1. • Refractoriness to standard therapy or disease for which no standard therapy exists. • Eastern Cooperative Oncology Group Performance Status of 0 or 1. • Archival or fresh tumour sample. • Key exclusion criteria were: • Previous treatment with any agents targeting CD73, CD39, or adenosine receptors. • Treatment with any conventional or investigational anticancer therapy within 21 days of the first planned dose. • Active or prior autoimmune or inflammatory disorders within the past 5 years. • Cardiac and vascular criteria including presence of acute coronary syndrome or thromboembolic events within 6 months prior to enrolment, congestive heart failure, serious cardiac arrhythmia requiring medication, or uncontrolled hypertension. • Untreated metastases to the central nervous system.
Overall, 57 patients received treatment (IPH5201, n=38; IPH5201+durvalumab, n=19). […] Treatment-emergent adverse events (TEAEs) occurred in 96.5% of patients; 40.4% had grade ≥3 TEAEs. […] Treatment-related adverse events (TRAEs) occurred in 66.7% of patients (37/57 (64.9%) related to IPH5201; 11/19 (57.9%) related to durvalumab). […] The most common TRAEs were infusion-related reactions (21.1%), fatigue (17.5%), nausea, arthralgia, tumour pain and pruritus (8.8% each). […] Maximum tolerated dose (MTD) was not reached.

Turning to `O=c1[nH]cc(F)c(=O)[nH]1` [5-Fu, 5-FU], the ATP release result in the data set with H1703 tumor cell line (72 h after 5-FU) is on record as “induced significant ATP release”.
As to `N.N.O=C([O-])C1(C(=O)[O-])CCC1.[Pt+2]` [carboplatin], in the data set on H1703 tumor cell line (72 h after Carboplatin), the ATP release entry is on record as “induced significant ATP release”.
On to `N.N.[Cl][Pt][Cl]` [cisplatin], for which the ATP release entry in the data set on H1703 tumor cell line (24 h after Cisplatin treatment) is on record as “induced significant ATP release”.
As to `CC(=O)O[C@@]12CO[C@@H]1C[C@H](O)[C@@]1(C)C(=O)[C@H](O)C3=C(C)[C@@H](OC(=O)[C@H](O)[C@@H](NC(=O)OC(C)(C)C)c4ccccc4)C[C@@](O)([C@@H](OC(=O)c4ccccc4)[C@H]21)C3(C)C` [docetaxel, reference compound], the ATP release result in the data set on H1703 tumor cell line (40 h after Docetaxel) is on record as “induced significant ATP release”. In addition, the eATP release result with OAW42 (CD39+) cells is “at best a modest release of eATP”. Besides, the “extracellular ATP (eATP) release” value in data set [1] is recorded as “induced strong release of eATP”.
Consider `Nc1ccn([C@@H]2O[C@H](CO)[C@@H](O)C2(F)F)c(=O)n1` [gemcitabine, reference compound], for which, in the data set on H1703 tumor cell line (48 h after Gemcitabine), the ATP release result was “induced significant ATP release”. Besides, the “tumor growth compared to the control” value in the data set with MC38 cancer cell line (Experiment 1 (FIG. 6)) is “significantly slowed down tumor growth”; with MC38 cancer cell line (Experiment 2 (FIG. 7)), “significantly slowed down tumor growth”; in the data set on MC38 cancer cell line (Experiment 3 (FIG. 8)), “significantly inhibited tumor growth”. The “tumor growth compared to the control group” value in the data set on MC38 cancer cell line (gemcitabine +/- molPH5201 experiment (FIG. 5), gemcitabine 25 mg/kg, molPH5201 400 μg/mouse, p<0.001 where significant) is “drastically and significantly slowed down tumor growth”.
As to `O=C1[O][Pt]2([NH][C@@H]3CCCC[C@H]3[NH]2)[O]C1=O` [oxaliplatin], the ATP release result with H1703 tumor cell line (60 h after Oxaliplatin) is “induced significant ATP release”.
With `CC(=O)O[C@H]1C(=O)[C@@]2(C)[C@H]([C@H](OC(=O)c3ccccc3)[C@]3(O)C[C@H](OC(=O)[C@H](O)[C@@H](NC(=O)c4ccccc4)c4ccccc4)C(C)=C1C3(C)C)[C@]1(OC(C)=O)CO[C@@H]1C[C@@H]2O` [paclitaxel], the ATP release entry in the data set on H1703 tumor cell line (24 h after Paclitaxel) was “induced significant ATP release”.
Regarding `Nc1nc2[nH]cc(CCc3ccc(C(=O)N[C@@H](CCC(=O)O)C(=O)O)cc3)c2c(=O)[nH]1` [pemetrexed], the ATP release result in the data set on H1703 tumor cell line (48 h after Pemetrexed) is “induced significant ATP release”.
Turning to durvalumab [reference compound], in data set [2], the “patients with TRAEs related to durvalumab” value turned out to be 57.9% and the “patients with TRAEs related to durvalumab, count” value is 11/19.

The values above are taken from US20260191954A1, “COMPOSITIONS AND METHODS FOR NEOADJUVANT TREATMENT IN CANCER” (INNATE PHARMA, priority 2022, published 2026).
